Each structure is given as a SMILES string.

Details in one series: not given
Broadly, the boiling point is the temperature at which the vapour pressure of the liquid equals the pressure above it. The term melting point denotes the temperature of the solid-liquid transition. As to `Cc1cc(C)c(O)cc1O`, the boiling point was found to be 276 °C and the melting point came to 126 °C. `C[C@]12CCc3c(ccc4cc(O)ccc34)[C@@H]1CCC2=O` gave a melting point of 258 °C. In turn, `CCN(CC)C(=O)SCc1ccc(Cl)cc1` displayed a log10 Koc (L/kg) of 3.27, a log10 vapour pressure (mmHg) of -4.66 and a melting point of 3.3 °C. Consider `CC(C)(C)c1cc(-n2nc3ccc(Cl)cc3n2)c(O)c(C(C)(C)C)c1`, for which the ready biodegradability entry is recorded as “not readily biodegradable”. `CC1(C)CON(Cc2ccccc2Cl)C1=O` yielded a boiling point of 275 °C, a log10 Koc (L/kg) of 2.44, a log10 vapour pressure (mmHg) of -3.84 and a melting point of 25 °C. The compound `CCC(C)C(C)(CC)CC` (stereo not given) returned a boiling point of 162 °C.

`CC(C)(C)c1ccc2ccccc2c1`: the boiling point was 276 °C and the melting point is -4 °C. As for `O=C(O)c1c(Cl)ccc(Cl)c1Cl`, the log10 vapour pressure (mmHg) was -3.26, the melting point turned out to be 124 °C and the ready biodegradability result was “not readily biodegradable”.

Consider `CCC(C(=O)O)C1(O)CCCCC1` (stereo not given), for which the melting point is 81.5 °C. For the compound `C=CCCCCCCCCCCCCCCCCC`, the boiling point was found to be 329 °C, the log10 vapour pressure (mmHg) was -4.42 and the melting point came out at 23 °C. As for `Clc1ccc(Cl)c(-c2c(Cl)cccc2Cl)c1`, the log10 Koa was found to be 8.45 and the log10 vapour pressure (mmHg) was -4.65. Take `NC(=O)c1ccc(N)nc1`: the melting point was determined as 246 °C. For `COP(=S)(OC)Oc1ccc([N+](=O)[O-])c(C)c1`, the log10 Henry constant (atm·m³/mol) is -6.03, the log10 Koc (L/kg) worked out at 2.63, the log10 vapour pressure (mmHg) was -4.27 and the melting point was 3.4 °C. The ready biodegradability result is recorded as “readily biodegradable”. `O=C(Cl)C(F)(F)C(F)(F)C(F)(F)C(F)(F)C(F)(F)C(F)(F)C(F)(F)F` gave a boiling point of 131 °C. In turn, `C=C1CCCC1` registered a boiling point of 75.5 °C.

Take `NC(Cc1cc(Br)c(O)c(Br)c1)C(=O)O` (stereo in doubt): the melting point amounted to 245 °C.

On to `Oc1ccc2c(O)c3ccccc3cc2c1O`, for which the melting point is 208 °C. The compound `CC(C)(Br)[N+](=O)[O-]` displayed a boiling point of 153 °C. On to `CCCCS(=O)(=O)O`, for which the melting point was -15.2 °C. `C=CCSC` showed a boiling point of 92 °C. In turn, `CC(=O)C1CCC1` returned a boiling point of 138 °C. Turning to `NC(N)=S`, the log10 Koc (L/kg) was determined as 0.85, the log10 vapour pressure (mmHg) was -2.55 and the melting point was 182 °C. `Cc1ccc(C(=O)O)cc1C` registered a melting point of 165 °C. For `CCCCCC(C)O` (stereo not given), the boiling point was determined as 159 °C and the log10 vapour pressure (mmHg) was determined as 0.0899. In turn, `CCNC(N)=S` had a melting point of 112 °C. Compound `C[C@]12C=CC(=O)C=C1CC[C@H]1[C@@H]3C[C@@H](O)[C@](O)(C(=O)CO)[C@@]3(C)C[C@H](O)[C@@]12F` came in with a melting point of 270 °C.

On to `CC(C)(O)C(Br)(Br)Br`, for which the melting point is 169 °C. `CC(C)C1=CC2=C(CC1)[C@@]1(C)CCC[C@@](C)(C(=O)O)[C@@H]1CC2` yielded a melting point of 164 °C. On to `CCCCCCCCCCCCCCCC(=O)c1ccccc1`, for which the melting point is 59 °C. `CC(=O)c1cccc([N+](=O)[O-])c1` displayed a boiling point of 202 °C and a melting point of 81 °C. As to `COc1ccccc1NC(C)=O`, the boiling point came to 304 °C and the melting point was 87.5 °C. `CC[C@H]1OC(=O)[C@H](C)[C@@H](O[C@H]2C[C@@](C)(OC)[C@@H](O)[C@H](C)O2)[C@H](C)[C@@H](O[C@@H]2O[C@H](C)C[C@H](N(C)C)[C@H]2O)[C@](C)(O)C[C@@H](C)C(=O)[C@H](C)[C@@H](O)[C@]1(C)O`: the melting point is 191 °C. Compound `c1ccc(Nc2ccccc2)cc1` yielded a boiling point of 302 °C, a log10 Koa of 7.64, a log10 Koc (L/kg) of 2.78 and a log10 vapour pressure (mmHg) of -3.17. Further, the melting point was 52.9 °C and the ready biodegradability entry is recorded as “not readily biodegradable”. Take `Oc1ccc(Cl)cc1Cc1ccccc1`: the log10 vapour pressure (mmHg) was -5.85, the melting point came out at 48.5 °C and the ready biodegradability entry is given as “readily biodegradable”. Compound `O=C(O)[C@@H](O)[C@H](O)[C@H](O)[C@@H](O)C(=O)O` had a melting point of 126 °C.

As for `O=C(c1ccccc1)c1cccc(C(F)(F)F)c1`, the melting point turned out to be 52.5 °C. The compound `N#CCC(=O)NN` registered a melting point of 114 °C. `CN(C)CN(C)C` yielded a boiling point of 83 °C. For the compound `CCC(=O)O[C@H]1CC[C@H]2[C@@H]3CC[C@H]4CC(=O)[C@H](C)C[C@]4(C)[C@H]3CC[C@]12C`, the melting point came out at 128 °C.

In turn, `CC(CC(C)(C)O)OC(O)C(Cl)(Cl)Cl` (stereo not given) gave a melting point of 103 °C. Consider `COc1ccc(N)cc1N`, for which the boiling point was determined as 221 °C and the melting point turned out to be 67.5 °C.

`ClCc1cc(Cl)cc(Cl)c1` returned a melting point of 36 °C.

On to `CCCCC(CC)COP(=O)(OCC(CC)CCCC)OCC(CC)CCCC` (stereo not given), for which the log10 vapour pressure (mmHg) is -7.08, the melting point was -74 °C and the ready biodegradability entry is given as “not readily biodegradable”. With `CC(O)CO` (stereo not given), the boiling point turned out to be 188 °C, the log10 Koc (L/kg) was 0.36, the log10 vapour pressure (mmHg) was -0.889 and the melting point was -60 °C. In addition, the ready biodegradability result was “readily biodegradable”. In the case of `C=CC(O)CO` (stereo not given), the boiling point amounted to 196 °C. For `BrCCc1ccccc1`, the boiling point turned out to be 219 °C, the log10 vapour pressure (mmHg) was -0.612 and the melting point was -65.7 °C.

The compound `CCc1cnccc1C` returned a boiling point of 198 °C. In the case of `O=C(O)COc1cccc(Cl)c1Cl`, the melting point came to 174 °C. The compound `CCCCCCCCCCCCCCCCOC(C)=O` gave a melting point of -18.5 °C. `CCC(C)CC(C)N` (stereo not given) yielded a boiling point of 132 °C.

Regarding `C#CCCCCC`, the boiling point was determined as 99.7 °C, the log10 vapour pressure (mmHg) stood at 1.72 and the melting point was -81 °C. In turn, `CCC(=O)c1cccc(C)c1` displayed a boiling point of 235 °C. As to `CC1CCSCC1`, the boiling point was found to be 159 °C and the melting point is -28 °C. The compound `NS(=O)(=O)c1ccc(S(=O)(=O)CCO)cc1` displayed a melting point of 165 °C. `N#Cc1cccs1` registered a boiling point of 192 °C.

In turn, `Nc1c(F)cc(F)cc1F` returned a melting point of 35 °C. `CCCC(C)C(C)(C)O` (stereo not given) registered a boiling point of 160 °C. For the compound `Cc1ccccc1C(=O)Nc1cccc(OC(C)C)c1`, the log10 vapour pressure (mmHg) was -6.38 and the melting point was found to be 92.5 °C.

For `CCCCCCCCCCC1CCCC1`, the boiling point turned out to be 279 °C and the melting point is -22 °C.

Compound `FC(F)(F)c1nc2ccccc2[nH]1` gave a melting point of 210 °C. Compound `CCC(C)=C(C)C(C)=O` showed a boiling point of 158 °C. As for `CC(=O)Oc1cccnc1`, the ready biodegradability result was “readily biodegradable”.

The compound `CCCCCCCCCCCC1CCCC1` had a boiling point of 296 °C and a melting point of -10 °C. In turn, `C=COC(=O)C(C)C` displayed a boiling point of 104 °C. `C=CC1CO1` (stereo not given) gave a boiling point of 68 °C and a melting point of -135 °C. The compound `O=[N+]([O-])c1cc(S(=O)(=O)c2ccc(F)c([N+](=O)[O-])c2)ccc1F` gave a melting point of 194 °C.

On to `CCC[C@H]1CCCCC1=O`, for which the boiling point turned out to be 197 °C.

`O=[N+]([O-])c1ccc(Oc2ccc(C(F)(F)F)cc2Cl)cc1` returned a melting point of 68 °C. Consider `NN1CCCCC1`, for which the boiling point came to 147 °C. As to `OCCCCCCCCl`, the melting point is 11 °C. In turn, `CCC(C(=O)O)C(=O)O` returned a melting point of 114 °C. Consider `C=CCCCCCCCCCCCCCCCCCCCCC(=O)O`, for which the ready biodegradability result is reported as “readily biodegradable”. Regarding `CCCC=NO`, the boiling point was found to be 154 °C and the melting point was -29.5 °C. The compound `CN(C)c1ccccc1[N+](=O)[O-]` yielded a melting point of -20 °C.

`NCc1cccc(CN)c1`: the boiling point came out at 247 °C and the ready biodegradability result was “not readily biodegradable”.

The same series, now with this note: fish.
As for `CCN(CC)C(=O)SCc1ccc(Cl)cc1`, the log10 BCF was found to be 2.23 and the log10 biotransformation half-life (days) is 0.66.

With `CC(C)(C)c1cc(-n2nc3ccc(Cl)cc3n2)c(O)c(C(C)(C)C)c1`, the log10 BCF came to 3.57 and the log10 biotransformation half-life (days) turned out to be 0.72. As for `O=C(O)c1c(Cl)ccc(Cl)c1Cl`, the log10 BCF turned out to be 0.54. Take `COP(=S)(OC)Oc1ccc([N+](=O)[O-])c(C)c1`: the log10 BCF amounted to 1.95 and the log10 biotransformation half-life (days) was 0.03. `NC(N)=S`: the log10 BCF came to 0.3.

On to `CC(C)C1=CC2=C(CC1)[C@@]1(C)CCC[C@@](C)(C(=O)O)[C@@H]1CC2`, for which the log10 BCF was determined as 1.4. `c1ccc(Nc2ccccc2)cc1`: the log10 BCF worked out at 2.18 and the log10 biotransformation half-life (days) turned out to be 0.35.

Take `CCCCC(CC)COP(=O)(OCC(CC)CCCC)OCC(CC)CCCC` (stereo not given): the log10 BCF came out at 1.7 and the log10 biotransformation half-life (days) is -0.29. `NCc1cccc(CN)c1`: the log10 BCF amounted to 0.43.

The values above are taken from the OPERA property sets (Mansouri et al. 2018).
